How the values were obtained:
Mcl-1 protein = Mcl-1 protein (UniProtKB primary accession number: Q07820) (Homo sapiens, UniProt Q07820); experiment: Inhibition of Mcl-1 by fluorescence polarisation, Method 1; type: binding; settings: fluorescence polarisation; Method 1, or Method 2; read-out: IC50 (M) Mcl-1 FP
Method in brief: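 Compounds were tested as 11-point serial dilutions at 5% final DMSO against 5 nM Mcl-1 with 1 nM fluorescein-labelled ligand in 10 mM HEPES, 150 mM NaCl, 0.05% Tween 20, pH 7.4. Relative binding potency was read by fluorescence polarisation.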

[1] = test system: H929 multiple myeloma tumour line; experiment: In vitro cytotoxicity, Microculture Tetrazolium Assay; type: cell-based; settings: Homo sapiens, NCI-H929, 48 h, H929 cells, 48 hours exposure, MTT; read-out: IC50 (μM) MTT H929
Experimental: The cytotoxicity studies were carried out on the H929 multiple myeloma tumour line.
The cells are distributed onto microplates and exposed to the test compounds for 48 hours.

Sequence of Mcl-1 protein (Q07820 whole entry): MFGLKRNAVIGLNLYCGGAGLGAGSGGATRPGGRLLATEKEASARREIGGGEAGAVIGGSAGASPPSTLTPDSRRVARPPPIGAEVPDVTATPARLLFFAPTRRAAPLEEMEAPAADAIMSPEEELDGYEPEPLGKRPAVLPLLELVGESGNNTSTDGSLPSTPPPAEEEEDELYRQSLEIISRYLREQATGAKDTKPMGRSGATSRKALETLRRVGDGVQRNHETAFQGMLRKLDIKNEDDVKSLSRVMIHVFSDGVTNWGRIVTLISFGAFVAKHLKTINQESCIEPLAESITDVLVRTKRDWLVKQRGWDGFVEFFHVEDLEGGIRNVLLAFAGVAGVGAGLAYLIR

IC50 (Mcl-1 protein) [M]	Structure (SMILES)	IC50 [1] [µM]
8.5e-10	COc1ccccc1CC(Oc1ncnc2sc(-c3ccccc3)c(-c3ccc(OCCN4CCN(C)CC4)c(Cl)c3C)c12)C(=O)O [Example 564, (2R)-2-[((5Sa)-5-{3-chloro-2-methyl-4-[2-(4-methylpiperazin-1-yl)ethoxy]phenyl}-6-phenylthieno[2,3-d]pyrimidin-4-yl)oxy]-3-(2-methoxyphenyl)propanoic acid]	0.202
4.8e-07	COc1ccccc1CC(Oc1ncnc2sc(-c3ccccc3Cl)c(-c3ccc(OCCN4CCN(C)CC4)c(Cl)c3C)c12)C(=O)O [Example 565, (2R)-2-{[(5Sa)-5-{3-chloro-2-methyl-4-[2-(4-methylpiperazin-1-yl)ethoxy]phenyl}-6-(2-chlorophenyl)thieno[2,3-d]pyrimidin-4-yl]oxy}-3-(2-methoxyphenyl)propanoic acid]	1.96
2.5e-08	COc1ccccc1CC(Oc1ncnc2sc(-c3ccsc3)c(-c3ccc(OCCN4CCN(C)CC4)c(Cl)c3C)c12)C(=O)O [Example 568, (2R)-2-{[(5Sa)-5-{3-chloro-2-methyl-4-[2-(4-methylpiperazin-1-yl)ethoxy]phenyl}-6-(thiophen-3-yl)thieno[2,3-d]pyrimidin-4-yl]oxy}-3-(2-methoxyphenyl)propanoic acid]	0.22
3.9e-08	COc1ccccc1CC(Oc1ncnc2sc(-c3cnco3)c(-c3ccc(OCCN4CCN(C)CC4)c(Cl)c3C)c12)C(=O)O [Example 569, (2R)-2-{[(5Sa)-5-{3-chloro-2-methyl-4-[2-(4-methylpiperazin-1-yl)ethoxy]phenyl}-6-(1,3-oxazol-5-yl)thieno[2,3-d]pyrimidin-4-yl]oxy}-3-(2-methoxyphenyl)propanoic acid]	1.73
2e-08	COc1ccccc1CC(Oc1ncnc2sc(-c3csc(Cl)c3)c(-c3ccc(OCCN4CCN(C)CC4)c(Cl)c3C)c12)C(=O)O [Example 570, (2R)-2-{[(5Sa)-5-{3-chloro-2-methyl-4-[2-(4-methylpiperazin-1-yl)ethoxy]phenyl}-6-(5-chlorothiophen-3-yl)thieno[2,3-d]pyrimidin-4-yl]oxy}-3-(2-methoxyphenyl)propanoic acid]	0.324
4.4e-08	COc1ccccc1CC(Oc1ncnc2sc(-c3csc4ccsc34)c(-c3ccc(OCCN4CCN(C)CC4)c(Cl)c3C)c12)C(=O)O [Example 571, (2R)-2-{[(5Sa)-5-{3-chloro-2-methyl-4-[2-(4-methylpiperazin-1-yl)ethoxy]phenyl}-6-(thieno[3,2-b]thiophen-3-yl)thieno[2,3-d]pyrimidin-4-yl]oxy}-3-(2-methoxyphenyl)propanoic acid]	0.559
1.1e-08	CCC#Cc1sc2ncnc(OC(Cc3ccccc3OC)C(=O)O)c2c1-c1ccc(OCCN2CCN(C)CC2)c(Cl)c1C [Example 573, (2R)-2-{[6-(but-1-yn-1-yl)-(5Sa)-5-{3-chloro-2-methyl-4-[2-(4-methylpiperazin-1-yl)ethoxy]phenyl}thieno[2,3-d]pyrimidin-4-yl]oxy}-3-(2-methoxyphenyl)propanoic acid]	0.366
6.2e-08	COc1ccccc1CC(Oc1ncnc2sc(C(C)(F)F)c(-c3ccc(OCCN4CCN(C)CC4)c(Cl)c3C)c12)C(=O)O [Example 576, (2R)-2-{[(5Sa)-5-{3-chloro-2-methyl-4-[2-(4-methylpiperazin-1-yl)ethoxy]phenyl}-6-(1,1-difluoroethyl)thieno[2,3-d]pyrimidin-4-yl]oxy}-3-(2-methoxyphenyl)propanoic acid]	1.51
3.8e-08	C#Cc1ccc(-c2sc3ncnc(OC(Cc4ccccc4OC)C(=O)O)c3c2-c2ccc(OCCN3CCN(C)CC3)c(Cl)c2C)o1 [Example 578, (2R)-2-{[(5Sa)-5-{3-chloro-2-methyl-4-[2-(4-methylpiperazin-1-yl)ethoxy]phenyl}-6-(5-ethynylfuran-2-yl)thieno[2,3-d]pyrimidin-4-yl]oxy}-3-(2-methoxyphenyl)propanoic acid]	0.347
8.5e-09	COc1ccccc1CC(Oc1ncnc2sc(-c3ccc(C#N)o3)c(-c3ccc(OCCN4CCN(C)CC4)c(Cl)c3C)c12)C(=O)O [Example 579, (2R)-2-{[(5Sa)-5-{3-chloro-2-methyl-4-[2-(4-methylpiperazin-1-yl)ethoxy]phenyl}-6-(5-cyanofuran-2-yl)thieno[2,3-d]pyrimidin-4-yl]oxy}-3-(2-methoxyphenyl)propanoic acid]	0.463
2.9e-08	C=Cc1ccc(-c2sc3ncnc(OC(Cc4ccccc4OC)C(=O)O)c3c2-c2ccc(OCCN3CCN(C)CC3)c(Cl)c2C)o1 [Example 584, (2R)-2-{[(5Sa)-5-{3-chloro-2-methyl-4-[2-(4-methylpiperazin-1-yl)ethoxy]phenyl}-6-(5-ethenylfuran-2-yl)thieno[2,3-d]pyrimidin-4-yl]oxy}-3-(2-methoxyphenyl)propanoic acid]	0.902
8.5e-08	COc1ccccc1CC(Oc1ncnc2sc(-c3ccc(C4CC4)o3)c(-c3ccc(OCCN4CCN(C)CC4)c(Cl)c3C)c12)C(=O)O [Example 585, (2R)-2-{[(5Sa)-5-{3-chloro-2-methyl-4-[2-(4-methylpiperazin-1-yl)ethoxy]phenyl}-6-(5-cyclopropylfuran-2-yl)thieno[2,3-d]pyrimidin-4-yl]oxy}-3-(2-methoxyphenyl)propanoic acid]	2.92
2.6e-08	COc1ccccc1CC(Oc1ncnc2sc(-c3cccc(OCc4ccncc4)c3)c(-c3ccc(OCCN4CCN(C)CC4)c(Cl)c3C)c12)C(=O)O [Example 587, (2R)-2-[((5Sa)-5-{3-chloro-2-methyl-4-[2-(4-methylpiperazin-1-yl)ethoxy]phenyl}-6-[3-(pyridin-4-ylmethoxy)phenyl]thieno[2,3-d]pyrimidin-4-yl)oxy]-3-(2-methoxyphenyl)propanoic acid]	0.539
8e-09	COc1ccccc1CC(Oc1ncnc2sc(-c3cccc(OCCN4CCOCC4)c3)c(-c3ccc(OCCN4CCN(C)CC4)c(Cl)c3C)c12)C(=O)O [Example 588, (2R)-2-[((5Sa)-5-{3-chloro-2-methyl-4-[2-(4-methylpiperazin-1-yl)ethoxy]phenyl}-6-{3-[2-(morpholin-4-yl)ethoxy]phenyl}thieno[2,3-d]pyrimidin-4-yl)oxy]-3-(2-methoxyphenyl)propanoic acid]	0.256
8.7e-09	COCCOc1cccc(-c2sc3ncnc(OC(Cc4ccccc4OC)C(=O)O)c3c2-c2ccc(OCCN3CCN(C)CC3)c(Cl)c2C)c1 [Example 589, (2R)-2-[((5Sa)-5-{3-chloro-2-methyl-4-[2-(4-methylpiperazin-1-yl)ethoxy]phenyl}-6-[3-(2-methoxyethoxy)phenyl]thieno[2,3-d]pyrimidin-4-yl)oxy]-3-(2-methoxyphenyl)propanoic acid]	0.233
6.1e-09	COCc1cc(-c2sc3ncnc(OC(Cc4ccccc4OCc4ccnc(OC)n4)C(=O)O)c3c2-c2ccc(OCCN3CCN(C)CC3)c(Cl)c2C)ccc1F [Example 594, (2R)-2-[((5Sa)-5-{3-chloro-2-methyl-4-[2-(4-methylpiperazin-1-yl)ethoxy]phenyl}-6-[4-fluoro-3-(methoxymethyl)phenyl]thieno[2,3-d]pyrimidin-4-yl)oxy]-3-{2-[(2-methoxypyrimidin-4-yl)methoxy]phenyl}propanoic acid]	0.13

Reference: patent publication US9670227B2, “Thienopyrimidine derivatives, a process for their preparation and pharmaceutical compositions containing them” (LES LABORATOIRES SERVIER, priority 2013, dated 2017)
